Measured values published in patent US20240174680A1, “CDK2 INHIBITORS AND METHODS OF USING THE SAME” (Cedilla Therapeutics, Inc., priority 2021, published 2024).

These molecules were tested against CDK2/Cyclin E1 (Homo sapiens, UniProt P24941) (assay: CDK2/Cyclin E1 Caliper LabChip EZ Reader mobility shift assay). Settings: read-out: Caliper Assay (CDK2/CCNE1): IC50.
Assay type: biochemical
Parameters: purchased Eurofins 14-475
Procedure, shortened: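 Substrate-to-product conversion of fluorescent peptide (1.5 μM final) read by capillary electrophoresis after 100 min reaction, EDTA-quenched. Enzyme (2.5 nM final) and ATP (100 μM final) were preincubated 30 min with inhibitor dilutions first. % activity vs concentration fitted four-parameter for IC50.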

| IC50 [nM] | SMILES |
| --- | --- |
| > 10000 | CNC(=O)C(NC(=O)[C@@H]1CN(C(=O)c2cncs2)CC12CN(C(=O)[C@H]1CC1(C)C)C2)c1ccc(C)nn1 (stereo partly drawn) [I-420] |
| 1000 to 10000 | CNC(=O)[C@@H](NC(=O)C1(C)CN(C(=O)c2cnn(Cc3ccccc3)c2)CC12CN(C(=O)[C@H]1CC1(C)C)C2)[C@@H](C)OCc1ccccc1 (stereo partly drawn) [I-498, 6-(1-benzyl-1H-pyrazole-4-carbonyl)-N-((2S,3R)-3-(benzyloxy)-1-(methylamino)-1-oxobutan-2-yl)-2-((S)-2,2-dimethylcyclopropane-1-carbonyl)-8-methyl-2,6-diazaspiro[3.4]octane-8-carboxamide] |
| 10 to 100 | C[C@@H](OCC1CCCCC1)[C@H](NC(=O)[C@@H]1CN(C(=O)c2cncs2)CC12CN(C(=O)[C@H]1CC1(F)F)C2)C(=O)N1CCCCC1 [I-296] |
| 100 to 1000 | CNC(=O)[C@@H](NC(=O)[C@@H]1CN(C(=O)c2cnn(Cc3ccccc3)c2)CC12CN(C(=O)[C@H]1CC1(C)C)C2)[C@@H](C)OCc1cccc(O)c1 [I-262] |
| ≤ 10 | CCOC(=O)[C@@H]1CCCN(C(=O)[C@@H](NC(=O)[C@@H]2CN(C(=O)c3cnn(Cc4ccccc4)c3)CC23CN(C(=O)[C@H]2CC2(C)C)C3)[C@@H](C)OCC2CCCCC2)C1 [I-484] |
| 10 to 100 | CNC(=O)[C@@H](NC(=O)[C@@H]1CN(C(=O)c2cnn(Cc3ccccc3)c2)CC12CN(C(=O)[C@H]1CC1(C)C)C2)[C@@H](C)OCC12CC(C(=O)OC)(C1)C2 [I-299] |
| 10 to 100 | CNC(=O)C(NC(=O)[C@@H]1CN(C(=O)c2cncs2)CC12CN(C(=O)[C@H]1CC1(C)C)C2)c1cccc(C2CCC(F)(F)CC2)n1 (stereo partly drawn) [I-411] |
| 100 to 1000 | C[C@@H](OCC1CCCCC1)[C@H](NC(=O)[C@@H]1CN(C(=O)c2ccn[nH]2)CC12CN(C(=O)[C@H]1CC1(C)C)C2)C(=O)N1CCCCC1 [I-216] |
| 10 to 100 | C[C@@H](OCc1ccccc1)C(NC(=O)C1CN(C(=O)c2cnn(Cc3ccccc3)c2)CC12CN(C(=O)[C@H]1CC1(C)C)C2)C(=O)NCCOCCOCCO (stereo partly drawn) [I-21] |
| > 10000 | CNC(=O)[C@@H](NC(=O)[C@@H]1CN(C(=O)Cc2cnn(Cc3ccccc3)c2)CC12CN(C(=O)[C@H]1CC1(C)C)C2)[C@@H](C)OCc1ccccc1 [I-373] |
| > 10000 | CNC(=O)C(NC(=O)[C@@H]1CN(C(=O)c2cn[nH]c2)CC12CN(C(=O)[C@H]1CC1(C)C)C2)C(O)Cc1ccccc1 (stereo partly drawn) [I-298] |
| > 10000 | CNC(=O)[C@@H](NC(=O)[C@@H]1CN(C(=O)c2cnn(Cc3ccccc3)c2)CC12CN(C(=O)[C@H]1CC1(C)C)C2)[C@@H](C)N(CC1CCCCC1)C(C)=O [I-273, (S)-6-(1-benzyl-1H-pyrazole-4-carbonyl)-N-((2S,3R)-3-(N-(cyclohexylmethyl)acetamido)-1-(methylamino)-1-oxobutan-2-yl)-2-((S)-2,2-dimethylcyclopropane-1-carbonyl)-2,6-diazaspiro[3.4]octane-8-carboxamide] |
| > 10000 | C[C@@H](O)[C@H](NC(=O)[C@@H]1CN(C(=O)c2cnn(C)c2)CC12CN(C(=O)[C@H]1CC1(C)C)C2)C(=O)N1CCCCC1 [I-305] |
| > 10000 | CNC(=O)C(NC(=O)[C@@H]1CN(C(=O)c2cncs2)CC12CN(C(=O)[C@H]1CC1(C)C)C2)C(O)Cc1ccccc1 (stereo partly drawn) [I-356] |
| 1000 to 10000 | CNC(=O)[C@H](CS(=O)(=O)Cc1ccccc1)NC(=O)[C@@H]1CN(C(=O)c2cnn(Cc3ccccc3)c2)CC12CN(C(=O)[C@H]1CC1(C)C)C2 [I-226] |
| ≤ 10 | C[C@@H](OCC1CCCCC1)[C@H](NC(=O)[C@@H]1CN(C(=O)c2cnn(Cc3ccccc3)c2)CC12CN(C(=O)[C@H]1CC1(C)C)C2)C(=O)NCC1(C(=O)O)CC1 [I-474] |
| > 10000 | CO[C@@H]1CC[C@H](NC(=O)[C@@H]2CN(C(=O)c3cnn(Cc4ccccc4)c3)CC23CN(C(=O)[C@H]2CC2(C)C)C3)C1 [I-248] |

| IC50 [nM] | SMILES |
| --- | --- |
| > 10000 | CNC(=O)[C@@H](NC(=O)[C@@H]1CN(C(=O)c2cncs2)CC12CN(Cc1ccco1)C2)[C@@H](C)OCC12CCC(CC1)OC2 [I-349] |
| ≤ 10 | C[C@@H](OCC1CCC(F)(F)CC1)[C@H](NC(=O)[C@@H]1CN(C(=O)c2cnn(Cc3ccc(F)cc3)c2)CC12CN(C(=O)[C@H]1CC1(C)C)C2)C(N)=O [I-203] |
| 10 to 100 | C[C@@H](OCc1ccccc1)[C@H](NC(=O)[C@@H]1CN(C(=O)c2cncs2)CC12CN(C(=O)[C@H]1CC1(C)C)C2)C(=O)N(C)C [I-416] |
| 10 to 100 | C[C@@H](OCC1CCOCC1)[C@H](NC(=O)[C@@H]1CN(C(=O)c2cncs2)CC12CN(C(=O)[C@H]1CC1(C)C)C2)C(=O)N1CCC(n2ccnc2)CC1 [I-440] |
| > 10000 | CNC(=O)[C@@H](NC(=O)[C@@H]1CN(C(=O)c2cncs2)CC12CN(C(=O)[C@H]1CC1(C)C)C2)[C@H](O)CC1CCCCC1 [I-379] |
| ≤ 10 | C[C@@H](OCC1CCCCC1)[C@H](NC(=O)[C@@H]1CN(C(=O)c2cnn(Cc3ccccc3)c2)CC12CN(C(=O)[C@H]1CC1(C)C)C2)C(=O)N1CCC(c2nnco2)CC1 [I-449] |
| 100 to 1000 | CC1(C)C[C@@H]1C(=O)N1CC2(CN(C(=O)c3cncs3)C[C@H]2C(=O)NC(c2cccc(C3CCCCC3)n2)P(C)(C)=O)C1 (stereo partly drawn) [I-494] |
| 10 to 100 | CNC(=O)[C@@H](NC(=O)[C@@H]1CN(C(=O)c2cncs2)CC12CN(C(=O)[C@H]1CC1(C)C)C2)[C@@H](C)OC1C2CC3CC(C2)CC1C3 (stereo partly drawn) [I-463] |
| ≤ 10 | C[C@@H](OCC1CCC(F)(F)CC1)[C@@H](COC1CCC(F)(F)CC1)NC(=O)[C@@H]1CN(C(=O)c2cncs2)CC12CN(C(=O)[C@H]1CC1(C)C)C2 [I-315] |
| 1000 to 10000 | CC1(C)C[C@@H]1C(=O)N1CC2(CN(C(=O)c3cnn(Cc4ccccc4)c3)C[C@H]2C(=O)N[C@@H]2CCCN(C(=O)C3CCCCC3)C2)C1 [I-215] |
| 10 to 100 | CNC(=O)[C@@H](NC(=O)[C@@H]1CN(C(=O)c2cncs2)CC12CN(C(=O)[C@H]1CC1(C)C)C2)[C@@H](C)OC(C)C1CCCCC1 (stereo partly drawn) [I-279] |
| 10 to 100 | CNC(=O)[C@@H](NC(=O)[C@@H]1CN(C(=O)c2cnn(Cc3ccccc3)c2)CC12CN(C(=O)[C@H]1CC1(C)C)C2)[C@@H](C)OCC1C[C@@H](C)C[C@@H](C)C1 (stereo partly drawn) [I-249] |
| ≤ 10 | C[C@@H](OCC1CCC(F)(F)CC1)[C@H](NC(=O)[C@@H]1CN(C(=O)c2cncs2)CC12CN(C(=O)[C@H]1CC1(C)C)C2)C(=O)N1CCC(C)(C)CC1 [I-386] |
| > 10000 | CC(C)O[C@H]1C[C@H](NC(=O)[C@@H]2CN(C(=O)c3cnn(Cc4ccccc4)c3)CC23CN(C(=O)[C@H]2CC2(C)C)C3)C1 [I-233] |
| 100 to 1000 | CC1(C)C[C@@H]1C(=O)N1CC2(CN(C(=O)c3cnn(Cc4ccccc4)c3)C[C@H]2C(=O)N[C@H]2CCN(c3ccccc3)C2)C1 [I-206] |
| 10 to 100 | C[C@@H](OCc1ccc(Cl)cc1)[C@@H](CO)NC(=O)[C@@H]1CN(C(=O)c2cncs2)CC12CN(C(=O)[C@H]1CC1(C)C)C2 [I-404] |

The next lines start with the molecule.

| SMILES | IC50 [nM] |
| --- | --- |
| CNC(=O)[C@@H](NC(=O)[C@@H]1CN(C(=O)c2cnn(Cc3ccccc3)c2)CC12CN(C(=O)[C@H]1CC1(C)C)C2)[C@@H](C)OCC(C)(C)C [I-130A] | 10 to 100 |
| COC(=O)[C@@H](CO)NC(=O)[C@H]1CN(C(=O)c2cnn(Cc3ccccc3)c2)CC12CN(C(=O)[C@H]1CC1(C)C)C2 [I-187B] | > 10000 |
| CO[C@H]1COCC[C@H]1NC(=O)[C@@H]1CN(C(=O)c2cnn(Cc3ccccc3)c2)CC12CN(C(=O)[C@H]1CC1(C)C)C2 [I-134A] | > 10000 |
| CNC(=O)[C@@H](NC(=O)[C@H]1CN(C(=O)c2cnc(COC(C)(C)C)s2)CC12CN(C(=O)[C@H]1CC1(C)C)C2)[C@@H](C)OCC1CCCCC1 [I-175B] | 100 to 1000 |
| CNC(=O)[C@@H](NC(=O)[C@H]1CN(C(=O)c2cncs2)CC12CN(C(=O)C(C)(C)C)C2)[C@@H](C)OCC1CCCCC1 [I-186B] | > 10000 |
| C[C@@H](OCC1CCCCC1)[C@H](NC(=O)[C@@H]1CN(C(=O)c2cnn(Cc3ccccc3)c2)CC12CN(C(=O)[C@H]1CC1(C)C)C2)C(=O)N1CCOCC1 [I-152A] | ≤ 10 |
| CC1(C)C[C@@H]1C(=O)N1CC2(CN(C(=O)c3cnn(Cc4ccccc4)c3)C[C@@H]2C(=O)N[C@H]2CCc3cc(Cl)ccc32)C1 [I-120B] | 1000 to 10000 |
| CNC(=O)[C@@H](NC(=O)[C@H]1CN(C(=O)c2cnn(Cc3ccccc3)c2)CC12CN(C(=O)CC1(COC)CC1)C2)[C@@H](C)OCc1ccccc1 [I-82B] | > 10000 |
| CNC(=O)[C@@H](NC(=O)[C@H]1CN(Cc2cnn(Cc3ccccc3)c2)CC12CN(C(=O)[C@H]1CC1(C)C)C2)[C@@H](C)OCc1ccccc1 [I-16B] | > 10000 |
| CNC(=O)[C@@H](NC(=O)[C@@H]1CN(C(=O)c2cnn(Cc3ccccc3)c2)CC12CN(C(=O)C1(c3ccc(C(C)(C)C)cc3)CC1)C2)[C@@H](C)OCc1ccccc1 [I-80A] | > 10000 |
| CNC(=O)[C@@H](NC(=O)[C@@H]1CN(Cc2ccncc2)CC12CN(C(=O)[C@H]1CC1(C)C)C2)[C@@H](C)OCc1ccccc1 [I-55A] | > 10000 |
| CNC(=O)[C@@H](NC(=O)[C@@H]1CN(C(=O)c2cnn(CC3CCOCC3)c2)CC12CN(C(=O)[C@H]1CC1(C)C)C2)[C@@H](C)OCc1ccccc1 [I-95A] | 100 to 1000 |
| CNC(=O)[C@@H](NC(=O)[C@@H]1CN(C(=O)c2cnn(Cc3ccccc3)c2)CC12CN(C(=O)C1(CC3CC3)CC1)C2)[C@@H](C)OCc1ccccc1 [I-116A] | > 10000 |
| C[C@@H](NC(=O)[C@@H]1CN(C(=O)c2cnn(Cc3ccccc3)c2)CC12CN(C(=O)[C@H]1CC1(C)C)C2)c1cccc(F)c1 [I-128A] | > 10000 |
| CNC(=O)[C@@H](NC(=O)[C@H]1CN(C(=O)c2scnc2C)CC12CN(C(=O)[C@H]1CC1(C)C)C2)[C@@H](C)OCC1CCCCC1 [I-160B] | > 10000 |
| C[C@@H](OCC1CCC(F)(F)CC1)[C@H](NC(=O)[C@@H]1CN(C(=O)c2cn[nH]c2)CC12CN(C(=O)[C@H]1CC1(C)C)C2)C(=O)N1CCC(F)(F)CC1 [I-228A] | ≤ 10 |
| CNC(=O)[C@@H](NC(=O)[C@@H]1CN(C(=O)c2cnc(C3CC3)s2)CC12CN(C(=O)[C@H]1CC1(C)C)C2)[C@@H](C)OCC1CCCCC1 [I-178A] | 100 to 1000 |
| CNC(=O)[C@@H](NC(=O)[C@H]1CN(C(=O)c2sc(Cl)nc2Cl)CC12CN(C(=O)[C@H]1CC1(C)C)C2)[C@@H](C)OCC1CCCCC1 [I-232B] | 1000 to 10000 |
